{"source": "patent US6472369B1", "about": "“Anticancer compounds and methods” (The Regents of the University of Michigan, priority 1996, dated 2002)", "key": {"[1]": {"assay": "Clotting of peptide-treated blood in vivo", "details": "in vivo observation", "from_the_text": "In addition to using the PHSRN (SEQ ID NO:1) antagonists described above as anti-invasion chemotherapeutics, it is also contemplated that these antagonists be used as anti-thrombotics."}, "[2]": {"test_system": "metastatic DU-145 prostate cancer cells", "assay": "SU-ECM invasion assay, DU-145 prostate cancer cells", "assay_type": "cell-based, human", "details": "for inhibition of serum-induced invasion of SU-ECM: DU-145, 10% serum, FIG. 6A; for inhibition of PHSRN-induced invasion of SU-ECM: DU-145, serum-free medium, 100 ng per ml PHSRN, FIG. 6B"}, "[3]": {"test_system": "normal human mammary epithelial cells", "assay": "SU-ECM invasion assay, normal human mammary epithelial cells", "assay_type": "cell-based", "details": "10% FCS, 100 ng per ml PHSRN, FIG. 5B", "description": "Adult Strongylocentrotus purpuratus sea urchins were obtained from Pacific BioMarine, and their embryos were cultured to the early pluteus stage in artificial sea water at 15° C. SU-ECM were prepared from them by treatment with nonionic detergent and strerilized by dilution in the appropriate media. […]\nInvasion assays were coded and scored blindly by microscopic examination under phase contrast at 200- and 400-fold magnification. Each cell contacting an SU-ECM was scored for its position relative to the exterior or interior surfaces. […] The minimum viability of the cells in each assay was always ascertained at the time of assay by determining the fraction of spread, adherent cells on the bottom of each well scored.\nAn invasion frequency is defined as the fraction of cells in contact with basement membranes which were located in their interiors at the time of assay. […] Invasion frequencies were determined multiple times for each cell type assayed. For each type of cell assayed the mean and standard deviation of the invasion frequencies were calculated. […]"}, "[4]": {"test_system": "metastatic SUM-52 PE breast cancer cells", "assay": "SU-ECM invasion assay, SUM-52 PE breast cancer cells", "assay_type": "cell-based, human", "details": "SUM-52 PE; for inhibition of PHSRN-induced invasion of SU-ECM: serum free medium, 100 ng per ml PHSRN, FIG. 5B; for inhibition of serum-induced invasion of SU-ECM: FIG. 5A", "description": "Human breast carcinoma cell lines SUM 52 PE and SUM 44 PE were originally cultured from the pleural effusions of patients with metastatic breast cancer; and SUM 102 was cultured from a primary, microinvasive breast carcinoma (Ethier, S. P., Mahack, M. L., Gullick, W. J., Frank, T. S., and Weber, B. L. Differential isolation of normal luminal mammary epithelial cells and breast cancer cells from primary and metastatic sites using selective media. Cancer Res. 53: 627-635).\nAdult Strongylocentrotus purpuratus sea urchins were obtained from Pacific BioMarine, and their embryos were cultured to the early pluteus stage in artificial sea water at 15° C. SU-ECM were prepared from them by treatment with nonionic detergent and strerilized by dilution in the appropriate media.\nCells were harvested by rinsing in Hanks' balanced salt solution, followed by brief treatment with 0.25% trypsin, 0.02% EDTA, and pelleting and resuspension in the appropriate medium with or without 5% FCS at a density of about 50,000 cells per ml. When appropriate, purified bovine plasma fibronectin (Sigma), purified 120 kDa chymotryptic fragment (Gibco BRL), PHSRN (SEQ ID NO:1) or PHSCN (SEQ ID NO:86) peptides (synthesized at the Biomedical Research Core Facilities of the University of Michigan), or GRGDSP (SEQ ID NO:83) or GRGESP (SEQ ID NO:84) peptides (Gibco BRL) were added to the resuspended cells prior to placement of the cells on SU-ECM. In each well of a plate used for an invasion assay, SU-ECM were placed in 0.5 ml of the appropriate medium, and 0.5 ml of the resuspended cells dropped on their exterior surfaces. Invasion assays were incubated 1 to 16 hours prior to assay. If some circumstances, invasion assays were fixed in phosphate-buffered saline (PBS) with 2% formaldehyde for 5 minutes at room temperature, then rinsed into PBS.\nInvasion assays were coded and scored blindly by microscopic examination under phase contrast at 200- and 400-fold magnification. Each cell contacting an SU-ECM was scored for its position relative to the exterior or interior surfaces. A cell was judged to have invaded if it was located on an interior surface below the focal plane passing through the upper surface of the SU-ECM, but above the focal plane passing through its lower surface. The minimum viability of the cells in each assay was always ascertained at the time of assay by determining the fraction of spread, adherent cells on the bottom of each well scored.\nAn invasion frequency is defined as the fraction of cells in contact with basement membranes which were located in their interiors at the time of assay. Thus, an invasion frequency of 1 denotes invasion by 100% of the cells in contact with basement membranes. Invasion frequencies were determined multiple times for each cell type assayed. For each type of cell assayed the mean and standard deviation of the invasion frequencies were calculated.\nThe method of Example 4 is employed, with the addition of varying concentrations of the PHSCN (SEQ ID NO:86) peptide.\nThus, the procedure in Example 4 provides a method for determining the inhibitory potential of the PHSCN (SEQ ID NO:86) peptide by comparing the number of cell invasions in the presence of the PHSCN (SEQ ID NO:86) peptide, with the number of cell invasions in the absence of the PHSCN (SEQ ID NO:86) peptide."}, "[5]": {"test_system": "MatLyLu (MLL) tumors", "assay": "MLL prostate tumor growth and metastasis in rats, treatment begun with cell injection (Example 12)", "assay_type": "in vivo, Copenhagen rats", "description": "In the first part of this example, four Copenhagen rats were injected with 500,000 MatLyLu (MLL) cells subcutaneously in the thigh. Two of these rats also received 1 mg of the PHSCN (SEQ ID NO:86) peptide along with the injected MLL cells, and thereafter received 1 mg of the PHSCN (SEQ ID NO:86) peptide injected in their tail vein three time per week for two weeks. The other two injected rats were left untreated. Tumor sizes were measured with calipers on day 14, and the tumors in the untreated rats were removed. […] It is possible that the ability of the PHSCN (SEQ ID NO:86) peptide to slow tumor growth is due to its inhibition of tumor invasion by normal endothelial cells, an anti-angiogenic effect.\nTwo weeks after the size of the tumors were measured, the rats were sacrificed and the mean number of lung metastases was determined at 10-fold magnification. The mean number of lung metastases in the untreated mice (MLL only) was nearly 35 in spite of the fact that the initial prostate tumors had been removed when their size was measured. The mean number of lung metastases in the treated mice (MLL +PHSCN (SEQ ID NO:86)) was less than 5, even though the initial prostate tumors were never removed because they were too small. […] In this manner, the PHSCN (SEQ ID NO:86) peptide provides effective in vivo therapy for cancer by preventing the lethal effects of tumor cell growth and metastasis."}}, "data": [{"substance": "Pro-His-Ser-Cys-Asn (PHSCN)", "values": [{"measurement": "clotting of peptide-treated blood", "setting": "[1]", "value": "clot very slowly"}, {"measurement": "inhibition of serum-induced invasion of SU-ECM", "setting": "[2]; relatively high concentrations", "value": "complete inhibition"}, {"measurement": "inhibition of serum-induced invasion of SU-ECM", "setting": "[2]; relatively low concentrations", "value": "substantial inhibitory affect"}, {"measurement": "inhibition of PHSRN-induced invasion of SU-ECM", "setting": "[2]; higher concentrations", "value": "almost complete inhibition"}, {"measurement": "inhibition of PHSRN-induced invasion of SU-ECM", "setting": "[2]; low concentrations", "value": "substantial inhibitory affect"}, {"measurement": "inhibition of PHSRN-induced invasion of SU-ECM", "setting": "[3]; higher concentrations", "value": "almost complete inhibition"}, {"measurement": "inhibition of PHSRN-induced invasion of SU-ECM", "setting": "[3]; low concentrations", "value": "substantial inhibitory affect"}, {"measurement": "inhibition of PHSRN-induced invasion of SU-ECM", "setting": "[4]; higher concentrations", "value": "almost complete inhibition"}, {"measurement": "inhibition of PHSRN-induced invasion of SU-ECM", "setting": "[4]; low concentrations", "value": "substantial inhibitory affect"}, {"measurement": "inhibition of serum-induced invasion of SU-ECM", "setting": "[4]; relatively high PHSCN concentrations", "value": "complete inhibition"}, {"measurement": "inhibition of serum-induced invasion of SU-ECM", "setting": "[4]; relatively low PHSCN concentrations", "value": "substantial inhibitory affect"}, {"measurement": "growth of injected MLL tumors (tumor size, calipers)", "setting": "[5]; day 14, 1 mg with cells, then 1 mg tail vein three times per week for two weeks, FIG. 9A", "value": "significantly slows the growth"}, {"measurement": "mean number of lung metastases", "setting": "[5]; two weeks after tumor measurement, 10-fold magnification, primary tumors not removed, FIG. 9B", "value": "less than 5"}]}]}
